# Measurements as given in patent publication US7495018B2, “Substituted 1,3-thiazole compounds, their production and use” (Takeda Pharmaceutical Company Limited, priority 2000, dated 2009).
smiles,measurement,value
"Cc1cc(-c2sc(NC(=O)c3cccnc3)nc2-c2ccc(F)cc2)ccn1 [Example Compound 42-7, N-[4-(4-fluorophenyl)-5-(2-methyl-4-pyridyl)-1,3-thiazol-2-yl]nicotinamide]",melting point,261 to 262 °C
"Cc1cccc(-c2nc(N(C)C(=O)c3cccnc3)sc2-c2ccnc(NC3CCCCC3)c2)c1 [Example Compound 42-8, N-[5-(2-cyclohexylamino-4-pyridyl)-4-(3-methylphenyl)-1,3-thiazol-2-yl]-N-methylnicotinamide]",melting point,147 to 148 °C
"Cc1cccc(-c2nc(N(C)C(=O)c3cccnc3)sc2-c2ccnc(NC3CCCC3)c2)c1 [Example Compound 42-9, N-[5-(2-cyclopentylamino-4-pyridyl)-4-(3-methylphenyl)-1,3-thiazol-2-yl]N-methylnicotinamide]",melting point,148 °C
"Cc1cccc(-c2nc(NC(=O)c3ccc(Cl)nc3)sc2-c2ccnc(C)c2)c1 [Example Compound 43, 6-chloro-N-[4-(3-methylphenyl)-5-(2-methyl-4-pyridyl)-1,3-thiazol-2-yl]nicotinamide]",melting point,228 to 230 °C
"Cc1cccc(-c2nc(NC(=O)c3ccc(Cl)nc3)sc2-c2ccnc(NC3CCCCC3)c2)c1 [Example Compound 44-1, 6-chloro-N-[5-(2-cyclohexylamino-4-pyridyl)-4-(3-methylphenyl)-1,3-thiazol-2-yl]nicotinamide]",melting point,255 to 256 °C
"Cc1cccc(-c2nc(NC(=O)c3ccc(Cl)nc3)sc2-c2ccnc(NC3CCCC3)c2)c1 [Example Compound 44-2, 6-chloro-N-[5-(2-cyclopentylamino-4-pyridyl)-4-(3-methylphenyl)-1,3-thiazol-2-yl]nicotinamide]",melting point,211 to 212 °C
"Cc1cc(C)cc(-c2nc(NC(=O)c3ccc(Cl)nc3)sc2-c2ccnc(C)c2)c1 [Example Compound 44-3, 6-chloro-N-[4-(3,5-dimethylphenyl)-5-(2-methyl-4-pyridyl)-1,3-thiazol-2-yl]nicotinamide]",melting point,271 to 273 °C
"Cc1cccc(-c2nc(N(C)C(=O)c3ccc(Cl)nc3)sc2-c2ccnc(NC3CCCCC3)c2)c1 [Example Compound 44-4, 6-chloro-N-[5-(2-cyclohexylamino-4-pyridyl)-4-(3-methylphenyl)-1,3-thiazol-2-yl]-N-methylnicotinamide]",melting point,171 to 172 °C
"Cc1cccc(-c2nc(NC(=O)c3ccc(C)nc3)sc2-c2ccnc(C)c2)c1 [Example Compound 45, 6-methyl-N-[4-(3-methylphenyl)-5-(2-methyl-4-pyridyl)-1,3-thiazol-2-yl]nicotinamide]",melting point,233 to 234 °C
"Cc1cccc(-c2nc(NC(=O)c3ccc(C)nc3)sc2-c2ccnc(NC3CCCCC3)c2)c1 [Example Compound 46-1, N-[5-(2-cyclohexylamino-4-pyridyl)-4-(3-methylphenyl)-1,3-thiazol-2-yl]-6-methylnicotinamide]",melting point,242 to 243 °C
"Cc1cccc(-c2nc(NC(=O)c3ccc(C)nc3)sc2-c2ccnc(NC3CCCC3)c2)c1 [Example Compound 46-2, N-[5-(2-cyclopentylamino-4-pyridyl)-4-(3-methylphenyl)-1,3-thiazol-2-yl]-6-methylnicotinamide]",melting point,213 to 214 °C
"Cc1cc(C)cc(-c2nc(NC(=O)c3ccc(C)nc3)sc2-c2ccnc(C)c2)c1 [Example Compound 46-3, N-[4-(3,5-dimethylphenyl)-5-(2-methyl-4-pyridyl)-1,3-thiazol-2-yl]-6-methylnicotinamide]",melting point,252 to 253 °C
"Cc1cccc(-c2nc(N(C)C(=O)c3ccc(C)nc3)sc2-c2ccnc(NC3CCCC3)c2)c1 [Example Compound 46-4, N-[5-(2-cyclopentylamino-4-pyridyl)-4-(3-methylphenyl)-1,3-thiazol-2-yl]-N,6-dimethylnicotinamide]",melting point,117 to 118 °C
"COc1ccc(C(=O)Nc2nc(-c3cccc(C)c3)c(-c3ccnc(C)c3)s2)cn1 [Example Compound 47, 6-methoxy-N-[4-(3-methylphenyl)-5-(2-methyl-4-pyridyl)-1,3-thiazol-2-yl]nicotinamide]",melting point,224 to 226 °C
"COc1ccc(C(=O)Nc2nc(-c3cccc(C)c3)c(-c3ccnc(NC4CCCCC4)c3)s2)cn1 [Example Compound 48-1, N-[5-(2-cyclohexylamino-4-pyridyl)-4-(3-methylphenyl)-1,3-thiazol-2-yl]-6-methoxynicotinamide]",melting point,191 to 192 °C
"COc1ccc(C(=O)Nc2nc(-c3cccc(C)c3)c(-c3ccnc(NC4CCCC4)c3)s2)cn1 [Example Compound 48-2, N-[5-(2-cyclopentylamino-4-pyridyl)-4-(3-methylphenyl)-1,3-thiazol-2-yl]-6-methoxynicotinamide]",melting point,219 to 221 °C
"COc1ccc(C(=O)Nc2nc(-c3cc(C)cc(C)c3)c(-c3ccnc(C)c3)s2)cn1 [Example Compound 48-3, N-[4-(3,5-dimethylphenyl)-5-(2-methyl-4-pyridyl)-1,3-thiazol-2-yl]-6-methoxynicotinamide]",melting point,242 to 244 °C
"COc1ncccc1C(=O)Nc1nc(-c2cccc(C)c2)c(-c2ccnc(C)c2)s1 [Example Compound 49, 2-methoxy-N-[4-(3-methylphenyl)-5-(2-methyl-4-pyridyl)-1,3-thiazol-2-yl]nicotinamide]",melting point,169 to 170 °C
"COc1ccc(-c2nc(NC(C)=O)sc2-c2ccnc(N)c2)cc1 [Example Compound 50, N-[5-(2-amino-4-pyridyl)-4-(4-methoxyphenyl)-1,3-thiazol-2-yl]acetamide]",melting point,247 to 250 °C
"COc1ccc(-c2nc(NC(=O)c3ccccc3)sc2-c2ccnc(N)c2)cc1 [Example Compound 51, N-[5-(2-amino-4-pyridyl)-4-(4-methoxyphenyl)-1,3-thiazol-2-yl]benzamide]",melting point,219 to 222 °C
"Cc1cc(C)cc(-c2nc(NC(=O)Nc3ccccc3)sc2-c2cc(C)nc(C)c2)c1 [Example Compound 53-1, N-[4-(3,5-dimethylphenyl)-5-(2,6-dimethyl-4-pyridyl)-1,3-thiazol-2-yl]-N′-phenylurea]",melting point,219 to 222 °C
"Cc1cccc(-c2nc(NC(=O)Nc3ccccc3)sc2-c2ccnc(NC3CCCCC3)c2)c1 [Example Compound 53-2, N-[5-(2-cyclohexylamino-4-pyridyl)-4-(3-methylphenyl)-1,3-thiazol-2-yl]-N′-phenylurea]",melting point,198 to 199 °C
"Cc1cccc(-c2nc(NC(=O)Nc3ccccc3)sc2-c2ccnc(NC3CCCC3)c2)c1 [Example Compound 53-3, N-[5-(2-cyclopentylamino-4-pyridyl)-4-(3-methylphenyl)-1,3-thiazol-2-yl]-N′-phenylurea]",melting point,188 to 190 °C
"Cc1cccc(-c2nc(NC(=O)Nc3ccccc3)sc2-c2ccnc(C)c2)c1 [Example Compound 53-4, N-[4-(3-methylphenyl)-5-(2-methyl-4-pyridyl)-1,3-thiazol-2-yl]-N′-phenylurea]",melting point,168 to 169 °C
"Cc1cc(C)cc(-c2nc(-c3ccc([S+](C)[O-])cc3)sc2-c2ccnc(C)c2)c1 (centres unmarked) [Example Compound 56-1, 4-(3,5-dimethylphenyl)-5-(2-methyl-4-pyridyl)-2-(4-methylsulfinylphenyl)-1,3-thiazole]",melting point,151 to 153 °C
"Cc1cc(C)cc(-c2nc(-c3ccc([S+](C)[O-])cc3)sc2-c2cc(C)nc(C)c2)c1 (centres unmarked) [Example Compound 56-2, 4-(3,5-dimethylphenyl)-5-(2,6-dimethyl-4-pyridyl)-2-(4-methylsulfinylphenyl)-1,3-thiazole]",melting point,151 to 154 °C
"Cc1cc(C)cc(-c2nc(-c3ccc(S(C)(=O)=O)cc3)sc2-c2ccnc(C)c2)c1 [Example Compound 58-1, 4-(3,5-dimethylphenyl)-5-(2-methyl-4-pyridyl)-2-(4-methylsulfonylphenyl)-1,3-thiazole]",melting point,196 to 197 °C
"Cc1cccc(-c2nc(-c3ccc(S(C)(=O)=O)cc3)sc2-c2cc(C)nc(C)c2)c1 [Example Compound 58-2, 5-(2,6-dimethyl-4-pyridyl)-4-(3-methylphenyl)-2-(4-methylsulfonylphenyl)-1,3-thiazole]",melting point,182 to 184 °C
"Cc1cc(C)cc(-c2nc(-c3ccc(S(C)(=O)=O)cc3)sc2-c2cc(C)nc(C)c2)c1 [Example Compound 58-3, 4-(3,5-dimethylphenyl)-5-(2,6-dimethyl-4-pyridyl)-2-(4-methylsulfonylphenyl)-1,3-thiazole]",melting point,217 to 220 °C
"Cc1cccc(-c2nc(-c3ccc(S(C)(=O)=O)cc3)sc2-c2ccnc(F)c2)c1 [Example Compound 58-4, 5-(2-fluoro-4-pyridyl)-4-(3-methylphenyl)-2-(4-methylsulfonylphenyl)-1,3-thiazole]",melting point,195 to 199 °C
"Cc1cc(-c2sc(-c3ccc(S(C)(=O)=O)cc3)nc2-c2ccc(F)cc2)ccn1 [Example Compound 58-5, 4-(4-fluorophenyl)-5-(2-methyl-4-pyridyl)-2-(4-methylsulfonylphenyl)-1,3-thiazole]",melting point,190 to 192 °C
"CC(=O)Nc1cc(-c2sc(-c3ccc(S(C)(=O)=O)cc3)nc2-c2cccc(Cl)c2)ccn1 [Example Compound 58-6, N-[4-[4-(3-chlorophenyl)-2-(4-methylsulfonylphenyl)-1,3-thiazol-5-yl]-2-pyridyl]acetamide]",melting point,216 to 217 °C
"CCC(=O)Nc1cc(-c2sc(-c3ccc(S(C)(=O)=O)cc3)nc2-c2cccc(Cl)c2)ccn1 [Example Compound 58-7, N-[4-[4-(3-chlorophenyl)-2-(4-methylsulfonylphenyl)-1,3-thiazol-5-yl]-2-pyridyl]propionamide]",melting point,224 to 225 °C
"CC(C)(C)C(=O)Nc1cc(-c2sc(-c3ccc(S(C)(=O)=O)cc3)nc2-c2cccc(Cl)c2)ccn1 [Example Compound 58-8, N-[4-[4-(3-chlorophenyl)-2-(4-methylsulfonylphenyl)-1,3-thiazol-5-yl]-2-pyridyl]pivalamide]",melting point,122 to 123 °C
"Cc1cccc(-c2nc(NC(=O)OCCCl)sc2-c2ccnc(C)c2)c1 [Example Compound 62, 2-chloroethyl[4-(3-methylphenyl)-5-(2-methyl-4-pyridyl)-1,3-thiazol-2-yl]carbamate]",melting point,156 to 158 °C
